pEC50: −log10 of the molar value. Where “and” joins values, the source holds several entries; their conditions need not be identical. Equal entries are not always repeated.
Tests used:
[1] = test system: HCV ET replicon cells (Huh-7, HCV Con1-ET construct); test: Replicon assay: inhibition of Hepatitis C virus replication by supernatants from compound-stimulated human PBMC; format: cell-based; settings: Huh-7 HCV ET replicon, luciferase, 48 h incubation, read-out: mean EC50 (compound concentration giving a PBMC supernatant inhibiting HCV replication by 50%)
Protocol: Inhibition of Hepatitis C virus Replication by Supernatants from Compound-Stimulated Human Peripheral Blood Mononuclear Cells (PBMC).
An assay was established to measure the antiviral activity in supernatants from human PBMC which had been previously stimulated with compounds.
Activity assays were conducted using an Huh-7 cell line stably-transfected with a dicistronic replicon, comprising the HCV Con1-ET construct (Pietschmann et al., 2002 J. Virol. 2002 76(8):4008-21) and the firefly (Photinus pyralis) luciferase gene, obtained from ReBLikon GmbH, Germany.
1.5×10^4 HCV ET replicon cells per well were grown in 96-well plates overnight in 90 microlitres of cell culture medium. Ten microlitres of three-fold dilutions of PBMC supernatants generated above (stimulation of human donor blood-derived peripheral blood mononuclear cells (PBMC) with test compounds) were added to the ET cells. Following a 48-hour incubation, assay medium was removed and luciferase activity measured in the cell monolayers using the Steadylite assay system (Perkin Elmer). EC50 values were calculated as the compound concentration giving a PBMC supernatant which was able to inhibit HCV replication by 50% compared with a supernatant from unstimulated PBMC cultures.

[2] = test system: Ovalbumin (OVA)-induced acute pulmonary inflammation; test: Ovalbumin-induced acute pulmonary inflammation model; format: in vivo, BALB/c mice; settings: BAL on day 28
Protocol: Inhibition of Ovalbumin (OVA)—Induced Acute Pulmonary Inflammation. Female BALB/c mice (18-20 g) were inoculated on days 0 and 14, with 10 μg OVA adsorbed to 2 mg aluminium hydroxide in a volume of 0.2 ml phosphate buffered saline (PBS) via the intra-peritoneal route. On days 24-26, mice were intra-nasally challenged with 50 μl of either saline or OVA (formulated as above) under general anaesthesia. […] Doses were given once daily on days 23 to 27 with the initial dose 24 h prior to the first challenge. On the days of challenge, animals were dosed with compound or vehicle one hour after challenge. Animals therefore received a total of 5 doses. Dexamethasone was used as a positive control dosed at 10 mg/kg orally in the same vehicle once daily on days 24 to 27 with the initial dose 1 h prior to the first challenge. Animals therefore received a total of 4 doses. Animals were killed on day 28 (48 hours post last saline or OVA challenge) and bronchoalveolar lavage (BAL) was performed with 5×1 ml (0.1% bovine serum albumin, 10 mM EDTA in PBS) and pooled. Numbers of lymphocytes, macrophages, eosinophils and neutrophils in BAL were identified by light scatter flow cytometry and quantified.

[3] = 5 mg/kg orally once daily days 23 to 27, compared with saline treated controls
[4] = positive control, 10 mg/kg orally once daily days 24 to 27, 10 mg/kg

How did the pEC50 [1] turn out when CCCCOc1nc(N)c2[nH]c(=O)n(CC3CCOCC3)c2n1 [Example 1, 6-Amino-2-butoxy-9-(tetrahydro-2H-pyran-4-ylmethyl)-7,9-dihydro-8H-purin-8-one] was run?
Its pEC50 is 7.37.

For CCCCOc1nc(N)c2[nH]c(=O)n(CC3CCCOC3)c2n1 (centres unmarked) [Example 12, 6-Amino-2-butoxy-9-(tetrahydro-2H-pyran-3-ylmethyl)-7,9-dihydro-8H-purin-8-one], which “reduction of eosinophil counts in BAL” value [2, 3] is on record?
The value was 67%.

What about the “reduction of lymphocyte counts in BAL” value [2, 3] of the same compound?
The value was 68%.

What about the “reduction of neutrophil counts in BAL” value [2, 3] of the same compound?
Its value is 58%.

Which results are given for C[C@@H]1C[C@H]2[C@@H]3CCC4=CC(=O)C=C[C@]4(C)[C@@]3(F)[C@@H](O)C[C@]2(C)[C@@]1(O)C(=O)CO [dexamethasone, Dexamethasone, reference compound]?
reduction of eosinophil counts in BAL [2, 4]: 92% and 86%; reduction of lymphocyte counts in BAL [2, 4]: 87% and 86%; reduction of neutrophil counts in BAL [2, 4]: 68% and 65%

Which results are given for CCCCNc1nc(N)c2[nH]c(=O)n(CC3CCOCC3)c2n1 [Example 4, 6-Amino-2-butylamino-9-(tetrahydro-2H-pyran-4-ylmethyl)-7,9-dihydro-8H-purin-8-one]?
reduction of eosinophil counts in BAL [2, 3]: 72%; reduction of lymphocyte counts in BAL [2, 3]: 66%; reduction of neutrophil counts in BAL [2, 3]: 50%; pEC50 [1]: 5.98

Source: patent US20100120799A1, “PURINE DERIVATIVES AS IMMUNOMODULATORS” (SMITHKLINE BEECHAM CORPORATION, priority 2007, published 2010)
